Source: US20160303127A1, “COMBINATION THERAPY WITH C-MET AND EGFR ANTAGONISTS” (Genentech, Inc., priority 2008, published 2016)
“And” between values parts separate entries of the source, which are not always exact repeats. Equal values may be shown once.

Assays:
NCI-H596 tumors = assay: Combination efficacy of MetMAb with erlotinib in the NCI-H596 hu-HGF-Tg-C3H-SCID xenograft model; type: in vivo; details: NCI-H596 tumors in hu-HGF-Tg-C3H-SCID mice, MetMAb 30 mg/kg IP once, erlotinib 150 mg/kg PO QD x2 weeks; for reduction in tumor growth compared to the vehicle control: day 20
Method: Test Material. Anti-c-met monovalent monoclonal antibody MetMAb (rhuOA5D5v2) was provided by the Antibody Engineering Department at Genentech, Inc., in a clear liquid form at 10.6 mg/ml. The vehicle was 10 mM histidine succinate, 4% trehalose dihydrate, 0.02% polysorbate 20, pH 5.7. Erlotinib (TARCEVA™) was provided by OSI Pharmaceuticals to the Pharmaceutics Department at Genentech and was weighed out along with a sufficient amount of vehicle (methylcellulose tween (MCT)). All material was shipped from Genentech, Inc. to the Van Andel Research Institute (VARI; Grand Rapids, Mich.) and was formulated prior to animal treatments. Materials were stored in a refrigerator set to maintain a temperature range of 4° C. to 8° C. The NCI-H596 cell line was obtained from American Type Culture collection (Manassas, Va.).
Species. Forty human HGF transgenic C3H-SCID mice (hu-HGF-Tg-C3H-SCID) were obtained from the in-house colony at the Van Andel Research Institute (VARI; Grand Rapids, Mich.). Five C3H-SCID mice were obtained from Jackson Laboratories. Animals were 4-6 weeks old and weighed 21-22 grams each. Mice were acclimated to study conditions for at least three days prior to tumor cell inoculations. Mice were housed in a shower-in barrier facility. Animals were housed in ventilated caging systems in rooms with filters supplying High-Efficiency Particulate Air (HEPA). Only animals that appeared to be healthy and were free of obvious abnormalities were used for the study.
Study design. As most HGF responsive tumors are driven in a paracrine fashion, a xenograft model that models paracrine driven growth was selected. Mouse HGF is a poor ligand for human c-met leading to a low biological response of human c-met expressing cells lines to mouse HGF (Bhargava, M., et al., 1992; Rong, S., et al., 1992). […]
The NCI-H596 cell line bears a mutated form of the c-met gene lacking exon 14 that encodes a binding site for the E3 ubiquitin ligase Cbl (Kong-Beltran, M., 2006). […] The responsiveness of NCI-H596 can also be seen in vivo, as the cell line readily form tumors in HGF-Tg-SCID mice (expressing human HGF, as noted above), but will not form tumors in immunocompromised mice lacking human HGF (nu/nu nude mice or SCID mice). […]
NCI-H596 cells were cultured in growth media that consisted of RPMI 1640 media (Invitrogen), 2 mM L-glutamine, and 10% fetal bovine serum. […] A subset of cells was counted by trypan blue exclusion and the remainder of the cells was resuspended in 100 μl of sterile 1× PBS to a concentration of 5×10^6 cells per milliliter.
Mice were prepared for inoculation by shaving the dorsal area with clippers. […] Tumors were monitored until they reached a mean volume of 100 mm^3. […]

c-met = molecular target: T1, c-met (Homo sapiens, UniProt P08581, DEL964-1010); assay: c-met phosphorylation in NCI-H596 hu-HGF-Tg-SCID xenograft tumors (IP/immunoblot); type: in vivo, mouse xenograft; details: MetMAb 30 mg/kg 24 h, erlotinib 150 mg/kg 6 h prior to harvest, average of 5 animals
T1 construct: endogenous in cells; host or cells: NCI-H596 (human NSCLC) cells grown as xenograft tumours in hu-HGF-Tg-SCID mice; tumour lysate, IP and immunoblot
Method: (§1) Tumors were allowed to grow to 200-300 mm^3 prior to treatment. Dosing was performed as described in Table 8. Briefly, MetMAb (30 mg/kg) or MetMAb buffer was dosed at time zero hours (0 hr) and methylcellulose tween vehicle (MCT) or erlotinib (150 mg/kg) was dosed at time 18 hours (18 hr). Mice were euthanized and tumors and plasma collected at time 24 hours (24 hr). Tumors were snap frozen in liquid nitrogen and then kept at −70° C. until they were processed for immunoprecipitation and immunoblotting.
Immunoprecipitations and Immunoblotting: To process tumors for protein analysis, tumors were first homogenized using a glass dounce with lysis buffer (Cell Signaling Technology, Inc., Danvers, Mass.), supplemented with 1 mM PMSF, additional protease inhibitor cocktail, and phosphatase inhibitor cocktail I and II (Sigma, Inc., St. Louis, Mo.). Lysates were incubated on ice for one hour and then centrifuged at 14,000×g for five minutes and supernatants collected. Protein concentrations were determined using the BCA™ Protein Assay Kit (Pierce, Inc., Rockford, Ill.) and samples were immunoblotted. […] For direct Western blots, 50 μg of tumor lysate was loaded per lane. Samples were then analyzed by SDS-PAGE and immunoblotting. […] Goat-anti-mouse-IRdye800 (Rockland Immunochemicals, Inc., Gilbertsville, Pa.) and goat-anti-rabbit-AlexaFluor680 (Molecular Probes, Inc., Eugene, Oreg.) were used as secondary antibodies. Immunoblots were imaged and phospho-protein levels were quantified and normalized to total protein levels (e.g. pEGFR over total EGFR) using an Odyssey imager (LI-COR Biosciences, Lincoln, Nebr.).
Twenty hu-HGF-Tg-SCID mice were inoculated with NCI-H596 cells and tumors established, as previously described. Once tumors reached sizes between 200-300 mm^3, mice were evenly grouped into four groups based upon tumor volume and dosing was begun (Table 8). MetMAb was dosed 24 hours prior to tumor harvest whereas erlotinib was dosed 6 hours prior to harvest. Dosing times were selected based on the relative half-life of each therapeutic agent. […]

ERK-1/2 = assay: phospho-ERK-1/2 in NCI-H596 hu-HGF-Tg-SCID xenograft tumors (immunoblot); type: in vivo, human; details: MetMAb 30 mg/kg 24 h, erlotinib 150 mg/kg 6 h prior to harvest, average of 5 animals
Method: as §1
Immunoprecipitations and Immunoblotting: To process tumors for protein analysis, tumors were first homogenized using a glass dounce with lysis buffer (Cell Signaling Technology, Inc., Danvers, Mass.), supplemented with 1 mM PMSF, additional protease inhibitor cocktail, and phosphatase inhibitor cocktail I and II (Sigma, Inc., St. Louis, Mo.). Lysates were incubated on ice for one hour and then centrifuged at 14,000×g for five minutes and supernatants collected. Protein concentrations were determined using the BCA™ Protein Assay Kit (Pierce, Inc., Rockford, Ill.) and samples were immunoblotted. […] Samples were then analyzed by SDS-PAGE and immunoblotting. […] Immunoblots were imaged and phospho-protein levels were quantified and normalized to total protein levels (e.g. pEGFR over total EGFR) using an Odyssey imager (LI-COR Biosciences, Lincoln, Nebr.). […]

NCI-H596 cell line = NCI-H596 cell line in vitro; cited from earlier work

Row | Molecule | reduction in tumor growth compared to the vehicle control (NCI-H596 tumors) | mean time to tumor doubling (TTD) (NCI-H596 tumors) | pMet/total Met (c-met phosphorylation) (c-met) | pMet/total Met (c-met phosphorylation) (c-met; listed as Erlotinib) | pERK1/2/total ERK1/2 (ERK-1/2; listed as Erlotinib) | HGF-driven proliferation (NCI-H596 cell line) | pERK1/2/total ERK1/2 (ERK-1/2)
1 | C#Cc1cccc(Nc2ncnc3cc(OCCOC)c(OCCOC)cc23)c1 [erlotinib, N-(3-ethynylphenyl)-6,7-bis(2-methoxyethoxy)-4-quinazolinamine] | statistically insignificant reduction | 9.5 (±1.2) days | did not reduce c-met phosphorylation | 157 (±103.4) % of vehicle control | 39% (+/−8.9%) % of vehicle control and 39 (±8.9) % of vehicle control |  | 
2 | MetMAb: Anti-c-met monovalent monoclonal antibody MetMAb (rhuOA5D5v2) (WO2007/063816) (antibody, chains of the INN, looked up, V domains shown, one-armed) VH: EVQLVESGGGLVQPGGSLRLSCAASGYTFTSYWLHWVRQAPGKGLEWVGMIDPSNSDTRFNPNFKDRFTISADTSKNTAYLQMNSLRAEDTAVYYCATYRSYVTPLDYWGQGTLVTVSS VL: DIQMTQSPSSLSASVGDRVTITCKSSQSLLYTSSQKNYLAWYQQKPGKAPKLLIYWASTRESGVPSRFSGSGSGTDFTLTISSLQPEDFATYYCQQYYAYPWTFGQGTKVEIK | 67% | 17.8 (±2.2) days | 12% (+/−3.6%) % of vehicle control and 12 (±3.5) % of vehicle control |  |  | blocks HGF-driven proliferation | 72% (+/−40.3%) % of vehicle control and 72 (±40.3) % of vehicle control
